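Step 1: Grow cells in 96-well plates. Step 2: Expose to compound for 48 hours at 5 concentrations. Step 3: Interpolate endpoints linearly; if unreached, use highest concentration. GI50 = concentration required for 50% inhibition of growth. TGI is the concentration that stops growth completely.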
What was measured:
Assay in all cases: inhibition of tumour cell growth, NCI panel, 48 h
HOP-92 NSCLC = tested on: HOP-92 NSCLC
SN12C renal = tested on: SN12C renal
HCT-15 colon = tested on: HCT-15 colon
M14 melanoma = tested on: M14 melanoma
CAKI-1 renal = tested on: CAKI-1 renal
T-47D breast = tested on: T-47D breast
UACC-257 melanoma = tested on: UACC-257 melanoma
BT-549 breast = tested on: BT-549 breast
SK-MEL-28 melanoma = tested on: SK-MEL-28 melanoma
IGROV1 ovarian = tested on: IGROV1 ovarian
TK-10 renal = tested on: TK-10 renal
MDA-MB-231 breast = tested on: MDA-MB-231 breast
NCI-H522 lung = tested on: NCI-H522 lung
OVCAR-5 ovarian = tested on: OVCAR-5 ovarian
U251 CNS = tested on: U251 CNS
NCI/ADR-RES ovarian = tested on: NCI/ADR-RES ovarian
LOX IMVI melanoma = tested on: LOX IMVI melanoma
786-0 renal = tested on: 786-0 renal
MALME-3M melanoma = tested on: MALME-3M melanoma
OVCAR-3 ovarian = tested on: OVCAR-3 ovarian
OVCAR-4 ovarian = tested on: OVCAR-4 ovarian
HCT-116 colon = tested on: HCT-116 colon
HOP-62 NSCLC = tested on: HOP-62 NSCLC
A549 NSCLC = tested on: A549 NSCLC
K-562 leukemia = tested on: K-562 leukemia
KM12 colon = tested on: KM12 colon
RPMI-8226 leukemia = tested on: RPMI-8226 leukemia
NCI-H226 lung = tested on: NCI-H226 lung
NCI-H460 lung = tested on: NCI-H460 lung
MDA-MB-435 = tested on: MDA-MB-435
OVCAR-8 ovarian = tested on: OVCAR-8 ovarian
DU-145 prostate = tested on: DU-145 prostate
SF-268 CNS = tested on: SF-268 CNS
SNB-19 CNS = tested on: SNB-19 CNS
UACC-62 melanoma = tested on: UACC-62 melanoma
SK-MEL-5 melanoma = tested on: SK-MEL-5 melanoma
HT29 colon = tested on: HT29 colon
CCRF-CEM leukemia = tested on: CCRF-CEM leukemia
PC-3 prostate = tested on: PC-3 prostate
UO-31 renal = tested on: UO-31 renal
RXF 393 renal = tested on: RXF 393 renal
HS 578T breast = tested on: HS 578T breast
SK-OV-3 ovarian = tested on: SK-OV-3 ovarian
SF-539 CNS = tested on: SF-539 CNS
HL-60(TB) leukemia = tested on: HL-60(TB) leukemia
COLO 205 colon = tested on: COLO 205 colon
HCC-2998 colon = tested on: HCC-2998 colon
MOLT-4 leukemia = tested on: MOLT-4 leukemia
MCF7 breast = tested on: MCF7 breast
SW-620 colon = tested on: SW-620 colon
SF-295 CNS = tested on: SF-295 CNS
EKVX NSCLC = tested on: EKVX NSCLC
SNB-75 CNS = tested on: SNB-75 CNS
ACHN renal = tested on: ACHN renal
NCI-H23 lung = tested on: NCI-H23 lung

Compound: Cc1n[nH]c(=S)n1/N=C/c1ccc(F)c(Oc2ccccc2)c1
- GI50 (HOP-92 NSCLC): 63.3 µM
- TGI (HOP-92 NSCLC): > 100 µM
- GI50 (SN12C renal): 95.6 µM
- TGI (SN12C renal): > 100 µM
- GI50 (HCT-15 colon): 49.7 µM
- TGI (HCT-15 colon): > 100 µM
- GI50 (M14 melanoma): 36.9 µM
- TGI (M14 melanoma): > 100 µM
- GI50 (CAKI-1 renal): 0.496 µM
- TGI (CAKI-1 renal): 0.944 µM
- GI50 (T-47D breast): > 100 µM
- TGI (T-47D breast): > 100 µM
- GI50 (UACC-257 melanoma): 25.4 µM
- TGI (UACC-257 melanoma): 75.3 µM
- GI50 (BT-549 breast): 63.7 µM
- TGI (BT-549 breast): > 100 µM
- GI50 (SK-MEL-28 melanoma): 7.1 µM
- TGI (SK-MEL-28 melanoma): 82.6 µM
- GI50 (IGROV1 ovarian): 62.3 µM
- TGI (IGROV1 ovarian): > 100 µM
- GI50 (TK-10 renal): 43.9 µM
- TGI (TK-10 renal): > 100 µM
- GI50 (MDA-MB-231 breast): 41.2 µM
- TGI (MDA-MB-231 breast): > 100 µM
- GI50 (NCI-H522 lung): 48.2 µM
- TGI (NCI-H522 lung): > 100 µM
- GI50 (OVCAR-5 ovarian): > 100 µM
- TGI (OVCAR-5 ovarian): > 100 µM
- GI50 (U251 CNS): 50.3 µM
- TGI (U251 CNS): > 100 µM
- GI50 (NCI/ADR-RES ovarian): 33.2 µM
- TGI (NCI/ADR-RES ovarian): > 100 µM
- GI50 (LOX IMVI melanoma): 51.1 µM
- TGI (LOX IMVI melanoma): > 100 µM
- GI50 (786-0 renal): 42.3 µM
- TGI (786-0 renal): > 100 µM
- GI50 (MALME-3M melanoma): 65.7 µM
- TGI (MALME-3M melanoma): > 100 µM
- GI50 (OVCAR-3 ovarian): 44.6 µM
- TGI (OVCAR-3 ovarian): > 100 µM
- GI50 (OVCAR-4 ovarian): 44.9 µM
- TGI (OVCAR-4 ovarian): > 100 µM
- GI50 (HCT-116 colon): 36 µM
- TGI (HCT-116 colon): > 100 µM
- GI50 (HOP-62 NSCLC): 49.4 µM
- TGI (HOP-62 NSCLC): > 100 µM
- GI50 (A549 NSCLC): 42.2 µM
- TGI (A549 NSCLC): > 100 µM
- GI50 (K-562 leukemia): 54.5 µM
- TGI (K-562 leukemia): > 100 µM
- GI50 (KM12 colon): 41.3 µM
- TGI (KM12 colon): > 100 µM
- GI50 (RPMI-8226 leukemia): 42.7 µM
- TGI (RPMI-8226 leukemia): > 100 µM
- GI50 (NCI-H226 lung): > 100 µM
- TGI (NCI-H226 lung): > 100 µM
- GI50 (NCI-H460 lung): 39 µM
- TGI (NCI-H460 lung): > 100 µM
- GI50 (MDA-MB-435): 28.6 µM
- TGI (MDA-MB-435): 77.1 µM
- GI50 (OVCAR-8 ovarian): 35.7 µM
- TGI (OVCAR-8 ovarian): > 100 µM
- GI50 (DU-145 prostate): 49.5 µM
- TGI (DU-145 prostate): > 100 µM
- GI50 (SF-268 CNS): 28.4 µM
- TGI (SF-268 CNS): > 100 µM
- GI50 (SNB-19 CNS): 55.9 µM
- TGI (SNB-19 CNS): > 100 µM
- GI50 (UACC-62 melanoma): 52.4 µM
- TGI (UACC-62 melanoma): > 100 µM
- GI50 (SK-MEL-5 melanoma): 16.1 µM
- TGI (SK-MEL-5 melanoma): 33.4 µM
- GI50 (HT29 colon): 27.5 µM
- TGI (HT29 colon): > 100 µM
- GI50 (CCRF-CEM leukemia): 40.5 µM
- TGI (CCRF-CEM leukemia): > 100 µM
- GI50 (PC-3 prostate): 79.6 µM
- TGI (PC-3 prostate): > 100 µM
- GI50 (UO-31 renal): 50 µM
- TGI (UO-31 renal): > 100 µM
- GI50 (RXF 393 renal): > 100 µM
- TGI (RXF 393 renal): > 100 µM
- GI50 (HS 578T breast): 33.2 µM
- TGI (HS 578T breast): > 100 µM
- GI50 (SK-OV-3 ovarian): > 100 µM
- TGI (SK-OV-3 ovarian): > 100 µM
- GI50 (SF-539 CNS): 27.7 µM
- TGI (SF-539 CNS): 65.1 µM
- GI50 (HL-60(TB) leukemia): 48.6 µM
- TGI (HL-60(TB) leukemia): > 100 µM
- GI50 (COLO 205 colon): 68.1 µM
- TGI (COLO 205 colon): > 100 µM
- GI50 (HCC-2998 colon): 69.5 µM
- TGI (HCC-2998 colon): > 100 µM
- GI50 (MOLT-4 leukemia): 47.6 µM
- TGI (MOLT-4 leukemia): > 100 µM
- GI50 (MCF7 breast): 41.4 µM
- TGI (MCF7 breast): > 100 µM
- GI50 (SW-620 colon): 36.5 µM
- TGI (SW-620 colon): > 100 µM
- GI50 (SF-295 CNS): 57.8 µM
- TGI (SF-295 CNS): > 100 µM
- GI50 (EKVX NSCLC): 32.8 µM
- TGI (EKVX NSCLC): 99.4 µM
- GI50 (SNB-75 CNS): 45.1 µM
- TGI (SNB-75 CNS): > 100 µM
- GI50 (ACHN renal): > 100 µM
- TGI (ACHN renal): > 100 µM
- GI50 (NCI-H23 lung): 42.2 µM
- TGI (NCI-H23 lung): > 100 µM

From PubChem BioAssay (NCI)
